Data taken from patent publication US12329745B2, “Methods and compositions for treating glucocorticoid excess” (Sparrow Pharmaceuticals, Inc., priority 2022, dated 2025).
Marks after values point to notes of the source that are not given here.

What was measured:
[1] = target: HSD-1 (Homo sapiens, UniProt P28845); assay: Target-mediated drug disposition (TMDD) population PK / PK-PD model
[2] = target: T1, adipose HSD-1 (Homo sapiens, UniProt P28845); assay: Adipose HSD-1 inhibition by microdialysis (D8 cortisone to D8 cortisol) in subjects with type 2 diabetes given SPI-62; format: in vivo
T1 construct: infused continuously into subcutaneous abdominal adipose tissue via microdialysis catheters; from tissue; host or cells: human subcutaneous abdominal adipose tissue, in vivo
Description: Male and non-menstruating female subjects with type 2 diabetes aged between 18 and 65 years with a body mass index between 30.0 and 45.0 were administered SPI-62 daily for 14 days. […] Percent adipose HSD-1 inhibition was calculated as: 100*(1-(MPFt/MPFbaseline).
The time (t) of the sample was considered to be the midpoint of the collection interval. […] Data shown are the median inhibition observed in two subjects for whom the SPI-62 daily dose was 6 mg.
Male and non-menstruating female subjects with type 2 diabetes aged between 18 and 65 years with a body mass index between 30.0 and 45.0 were administered SPI-62 daily for 14 days. In addition to the six subjects described in Example 1 who received SPI-62 1, 3, or 6 mg for 14 days, six additional subjects received SPI-62 1, 2, 3, or 10 mg for 5 to 8 days. […] Percent adipose HSD-1 inhibition was calculated as: 100*(1-(MPFt/MPFbaseline). The time (t) of the sample was considered to be the midpoint of the collection interval. A higher sensitivity assay for D8 cortisol was used to enable quantitation of adipose HSD-1 inhibition of >95%.

[3] = target: liver HSD-1 (Homo sapiens, UniProt P28845); assay: Urinary HSD-1 ratio (tetrahydrocortisol+allotetrahydrocortisol)/tetrahydrocortisone; format: in vivo; design: from tissue; host or cells: human liver in vivo, read through urinary steroid metabolites; conditions: for mean urinary HSD-1 ratio, reduction from baseline: 0.7 mg daily
Excerpt: The tetrahydro metabolites are rapidly and extensively excreted in urine. […] Continued adrenal synthesis provides a circulating pool of cortisol, the free fraction of which (˜5%) enters cells. That prevents the urinary HSD-1 ratio from dropping below approximately 0.1.

[4] = system: C57BL/6 male mice; assay: Mitigation of corticosterone (CORT) adverse effects in mouse; format: in vivo; conditions: for Fat depot weight, Gonadal, Mean / Fat depot weight, Mesenteric, Mean / Fat depot weight, Retroperitoneal, Mean / Fat depot weight, Subcutaneous, Mean / Muscle weight, Quadriceps, Mean / Muscle weight, Tibialis anterior, Mean: post-mortem Day 36
Description: A control group received no CORT or SPI-62. Body weight was assessed daily and food consumption twice weekly. Whole body muscle and fat amounts were measured at Days 0, 14, and 28 using an EchoMRI-130H body composition analyzer. Blood samples for fasting glucose and insulin were obtained at Days 1 (pre-dose), 15, 29, and 35. An open field test was conducted on Day 22. A grip strength test was performed on Day 28. After sacrifice on Day 36, gonadal, subcutaneous, retroperitoneal, and mesenteric fat, quadriceps, and tibialis anterior were dissected and weighed, and skin was formalin fixed and paraffin embedded.

Sequence of liver HSD-1 (P28845 whole entry): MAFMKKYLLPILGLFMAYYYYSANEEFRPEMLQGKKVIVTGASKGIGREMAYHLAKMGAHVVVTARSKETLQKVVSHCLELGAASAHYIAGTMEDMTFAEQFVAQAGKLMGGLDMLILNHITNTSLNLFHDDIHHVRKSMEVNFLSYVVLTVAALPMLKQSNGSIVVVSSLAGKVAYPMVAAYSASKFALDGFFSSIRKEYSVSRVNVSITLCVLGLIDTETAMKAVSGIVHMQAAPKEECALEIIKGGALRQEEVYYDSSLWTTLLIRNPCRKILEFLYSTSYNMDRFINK
Sequence of HSD-1 (P28845 whole entry): as above
T1 sequence (P28845 whole entry, the tested form may be a part): as the sequence (P28845 whole entry) above

For `Cn1c(-c2ccc(C(N)=O)cc2F)nnc1C(C)(C)Oc1c(F)cc(Cl)cc1F` [SPI-62, 4-(5-(2-(4-chloro-2,6-difluorophenoxy)propan-2-yl)-4-methyl-4H-1,2,4-triazol-3-yl)-3-fluorobenzamide], the IC50 [1] was 0.0234 nM, the Kd [1] was 0.183 nM and the “estimated total target amount (RTOT+RTA) as SPI-62” value ([1]; both, human, in vivo) was 3.6 mg. For the same molecule, the “Kd lower than the Ki” value ([1]; in vivo) was “approximately 60 fold”, the “estimated Kd lower than Ki for purified human HSD-1” value ([1]; in vivo) was 29 fold and the “estimated Kd lower than measured Ki for human HSD-1 expressed in CHO cells” value ([1]; in vivo) was 69 fold. For the same molecule, the Hill coefficient ([1]; model parameter estimate) was 1.42, the “association rate constant (kon)” value ([1]; model parameter estimate) was 400000 M⁻¹ s⁻¹ and the “total target amount in the adipose compartment (RTA)” value ([1]; model parameter estimate) was 671 nM. For the same molecule, the koff ([1]; read-out: dissociation rate constant (koff)) was 7.33e-05 s⁻¹, the “adipose HSD-1 inhibition, 2nd v 14th dose intervals” value ([2]; SPI-62 6 mg daily) was “almost identical” and the “time after a single dose at which adipose HSD-1 inhibition was detected” value ([2]; SPI-62 6 mg daily, median of two subjects, FIG. 1) was 2 to 4 h. For the same molecule, the “adipose HSD-1 inhibition during the 2nd dose interval” value ([2]; SPI-62 6 mg daily, quantitation limited to ~90-95%) was “maximal measurable levels”, the “adipose HSD-1 inhibition after multiple doses” value ([2]; SPI-62 1, 2, 3, or 10 mg) was “maximum measurable” and the “tachyphylaxis of human adipose HSD-1 inhibition with multiple dosing” value ([2]; human, in vivo) was “does not show”. For the same molecule, the “adipose HSD-1 inhibition after lower single doses” value ([2]; lower single SPI-62 doses) was “no or limited”, the “mean reduction of the urinary HSD-1 ratio from baseline” value ([3]; 0.2 mg daily for 14 days, last dosing day) was 87% and the “time after the last dose with incomplete return of urinary HSD-1 ratio to baseline” value ([3]; healthy adults) was “more than 2 weeks”. The “mean urinary HSD-1 ratio, reduction from baseline” value ([3]; healthy adults, 16±2 days after cessation) was 55%, the “mean urinary HSD-1 ratio, reduction from baseline” value ([3]; healthy adults, last dosing day) was 84% and the “mean urinary HSD-1 ratio” value ([3]; patients, 10 mg daily for 6 weeks, 2 weeks after the last dose) was 0.33. For the same molecule, the “mean urinary HSD-1 ratio” value ([3]; patients, 10 mg daily for 6 weeks, last dosing day) was 0.13, the “mean urinary HSD-1 ratio” value ([3]; single 1 mg dose, urine 0 to 6 hours post-dose) was 0.694 and the “mean urinary HSD-1 ratio” value ([3]; single 1 mg dose, urine 6 to 12 hours post-dose) was 0.471. The “mean urinary HSD-1 ratio” value ([3]; single 1 mg dose, urine 12 to 24 hours post-dose) was 0.472, the “mean urinary HSD-1 ratio” value ([3]; single 1 mg dose, urine 24 to 48 hours post-dose) was 0.522 and the “mean urinary HSD-1 ratio” value ([3]; single 1 mg dose, urine 48 to 72 hours post-dose) was 0.618. The “mean difference v placebo of the urinary HSD-1 ratio” value ([3]; single dose 1 mg) was 51%, the “Whole-body fat content LSM” value ([4]; 1 mg/kg QD + CORT, Day 14) was 0.121^a and the “Whole-body muscle content LSM” value ([4]; 1 mg/kg QD + CORT, Day 14) was 0.82^a. The “HOMA-IR LSM” value ([4]; 1 mg/kg QD + CORT, Day 15) was 3.73ª mmol glucose/μU insulin, the “Whole-body fat content LSM” value ([4]; 1 mg/kg QD + CORT, Day 28) was 0.142^ab and the “Whole-body muscle content LSM” value ([4]; 1 mg/kg QD + CORT, Day 28) was 0.77^a. The “HOMA-IR LSM” value ([4]; 1 mg/kg QD + CORT, Day 29) was 3.56^ab mmol glucose/μU insulin, the “HOMA-IR LSM” value ([4]; 1 mg/kg QD + CORT, Day 35) was 8.16^b mmol glucose/μU insulin and the “Fat depot weight, Gonadal, Mean” value ([4]; 1 mg/kg QD + CORT) was 10.60 mg/g body weight. The “Fat depot weight, Mesenteric, Mean” value ([4]; 1 mg/kg QD + CORT) was 6.46 mg/g body weight, the “Fat depot weight, Retroperitoneal, Mean” value ([4]; 1 mg/kg QD + CORT) was 3.33 mg/g body weight and the “Fat depot weight, Subcutaneous, Mean” value ([4]; 1 mg/kg QD + CORT) was 4.04 mg/g body weight. The “Muscle weight, Quadriceps, Mean” value ([4]; 1 mg/kg QD + CORT) was 3.98 mg/g body weight, the “Muscle weight, Tibialis anterior, Mean” value ([4]; 1 mg/kg QD + CORT) was 1.60 mg/g body weight and the “Whole-body fat content LSM” value ([4]; 10 mg/kg BID + CORT, Day 14) was 0.064^b. The “Whole-body muscle content LSM” value ([4]; 10 mg/kg BID + CORT, Day 14) was 0.89^b, the “HOMA-IR LSM” value ([4]; 10 mg/kg BID + CORT, Day 15) was 0.94^b mmol glucose/μU insulin and the “Whole-body fat content LSM” value ([4]; 10 mg/kg BID + CORT, Day 28) was 0.061^b. The “Whole-body muscle content LSM” value ([4]; 10 mg/kg BID + CORT, Day 28) was 0.86^b, the “HOMA-IR LSM” value ([4]; 10 mg/kg BID + CORT, Day 29) was 0.94^b mmol glucose/μU insulin and the “HOMA-IR LSM” value ([4]; 10 mg/kg BID + CORT, Day 35) was 2.16^b mmol glucose/μU insulin. The “Fat depot weight, Gonadal, Mean” value ([4]; 10 mg/kg BID + CORT) was 6.02 mg/g body weight, the “Fat depot weight, Mesenteric, Mean” value ([4]; 10 mg/kg BID + CORT) was 4.73 mg/g body weight and the “Fat depot weight, Retroperitoneal, Mean” value ([4]; 10 mg/kg BID + CORT) was 2.21 mg/g body weight. The “Fat depot weight, Subcutaneous, Mean” value ([4]; 10 mg/kg BID + CORT) was 1.95 mg/g body weight, the “Muscle weight, Quadriceps, Mean” value ([4]; 10 mg/kg BID + CORT) was 5.90 mg/g body weight and the “Muscle weight, Tibialis anterior, Mean” value ([4]; 10 mg/kg BID + CORT) was 2.36 mg/g body weight. The “Whole-body fat content LSM” value ([4]; 10 mg/kg QD + CORT, Day 14) was 0.061^b and the “Whole-body muscle content LSM” value ([4]; 10 mg/kg QD + CORT, Day 14) was 0.87^b.
